According to PMC11547576, “Identification of a New Promising BAG3 Modulator Featuring the Imidazopyridine Scaffold” (Molecules, 2024):

Experiments:
BAG3-BD = molecular target: T1, BAG3-BD (Homo sapiens, UniProt O95817); assay: SPR assay on BAG domain of BAG3 (BAG3-BD); type: binding; conditions: Biacore T200, 0 to 100 µM, 25 °C, 1:1 interaction model, read-out: BAG DOMAIN KD (µM) ± SD
T1 construct: the BAG3 domain (BAG3-BD) was procured from ARETA International S.r.l; purchased ARETA International S.r.l; (Gerenzano, Italy)
T1 sequence (O95817 421-498 limits assumed): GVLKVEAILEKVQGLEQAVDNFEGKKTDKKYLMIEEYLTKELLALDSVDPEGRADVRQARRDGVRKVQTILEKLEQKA
Procedure: (§1) In this study, we employed SPR experiments to evaluate the interactions between synthesized compounds (1–14) and both the full-length BAG3 protein and its BAG domain. Only the compounds that successfully bound to the full-length BAG3 protein were tested for their interaction with the BAG domain. Protein immobilization was achieved using the amide coupling method, and the compounds were tested at ten different concentrations, ranging from 0 to 100 µM. A known binder of BAG3-BD, LK4 ((Z)-ethyl 2-(5-(3,4-dihydroxybenzylidene)-2,4-dioxothiazolidin-3yl)acetate), was used as a positive control. […] Compound 14 also bound the target but with slightly higher KD values, still within the micromolar range. The three identified compounds were further investigated to understand whether this binding induced an effect on BAG3 protein functions. The KD values reported in Table 1 for the known inhibitor LK4 differ from those in previous studies due to the use of a newer-generation instrument for the SPR experiments. The earlier experiments utilized the Biacore 3000, whereas the current study employed the Biacore T200. While ligand binding was confirmed in both sets of experiments, the slightly different KD values are attributed to the enhanced sensitivity of the Biacore T200.
Recombinant human BAG3 protein (Bcl2-associated athanogene 3) was sourced from Novus Biologicals (Littleton, CO, USA), while the BAG3 domain (BAG3-BD) was procured from ARETA International S.r.l. (Gerenzano, Italy). We utilized (Z)-ethyl 2-(5-(3,4-dihydroxybenzylidene)-2,4-dioxothiazolidin-3-yl)acetate (LK4), a known BAG3 inhibitor previously identified by our group. Surface Plasmon Resonance (SPR) spectroscopy was employed to assess the affinity of synthesized molecules for BAG3 and BAG-BD using a Biacore T200 optical biosensor equipped with CM5 sensor chips (Cytiva, Marlborough, MA, USA). BAG3 and BAG-BD were immobilized on the CM5 sensor chip using standard amine-coupling protocols. BAG3 protein (0.067 μg/μL in 10 mM CH3COONa, pH 4.5) was immobilized at a flow rate of 10 μL/min, resulting in a density of 14 kRU. The BAG3 domain (0.38 μg/μL in 10 mM CH3COONa, pH 4.5) was immobilized under similar conditions, achieving a density of 4 kRU. […]
Compounds 1–14 and LK4 were dissolved to 10 mM in 100% DMSO and then diluted 1:20 (v/v) in PBS-P buffer (0.2 M phosphate buffer, 27 mM KCl, 1.37 M NaCl, 0.5% surfactant P20) to achieve a final DMSO concentration of 5.0%. […] Changes in mass, reflected as resonance units (RU), were recorded to determine binding responses. KD values were calculated using Biaevaluation software 3.2 by globally fitting the double-referenced association and dissociation data to a 1:1 interaction model. […]

HaCat cells = assay: MTT cell viability assay on HaCat healthy cells; type: cell-based; conditions: Homo sapiens, 72 h, seven concentrations (1 to 100 μM)
Procedure: Elevated expression levels of BAG3 are strongly associated with signaling pathways in various types of malignant cells; consequently, reducing the activity of this co-chaperone inhibits cell proliferation, triggers apoptosis, and induces cell cycle arrest. To assess the activity of compounds 10, 12, and 14, cytotoxicity assays were performed on HeLa cells, which were chosen for their tendency to overexpress BAG3 proteins. MTT assays were conducted by exposing HeLa cells to different concentrations of the compounds (25, 50, and 100 µM) for 72 h. Additionally, 10% DMSO was used as a positive control, while 0.1% DMSO served as a negative control. […] The next step involved the assessment of the cytotoxicity of the most promising candidate, 10, on healthy cells to determine its safety profile. To achieve this, MTT assays were conducted on HaCat cells over 72 h. […]
Cell viability was assessed by measuring mitochondrial metabolic activity using a colorimetric assay, which involves the reduction of 3-[4,5-dimethylthiazol-2,5-diphenyl-2H-tetrazolium bromide (MTT) to purple formazan. […] Absorbance was measured at 570 nm using a Multiskan™ GO Microplate Spectrophotometer (Thermo Fisher Scientific, Waltham, MA, USA,). […]

BAG3 full-length = molecular target: T2, BAG3 full-length (Homo sapiens, UniProt O95817); assay: SPR assay on BAG3 full-length protein; conditions: Biacore T200, 0 to 100 µM, 25 °C, 1:1 interaction model, n.b. = no binding, read-out: BAG3 FULL KD (µM) ± SD
T2 construct: both the full-length BAG3 protein and its BAG domain; purchased Novus Biologicals (Littleton, CO, USA)
T2 sequence (O95817 whole entry, the tested form may be a part): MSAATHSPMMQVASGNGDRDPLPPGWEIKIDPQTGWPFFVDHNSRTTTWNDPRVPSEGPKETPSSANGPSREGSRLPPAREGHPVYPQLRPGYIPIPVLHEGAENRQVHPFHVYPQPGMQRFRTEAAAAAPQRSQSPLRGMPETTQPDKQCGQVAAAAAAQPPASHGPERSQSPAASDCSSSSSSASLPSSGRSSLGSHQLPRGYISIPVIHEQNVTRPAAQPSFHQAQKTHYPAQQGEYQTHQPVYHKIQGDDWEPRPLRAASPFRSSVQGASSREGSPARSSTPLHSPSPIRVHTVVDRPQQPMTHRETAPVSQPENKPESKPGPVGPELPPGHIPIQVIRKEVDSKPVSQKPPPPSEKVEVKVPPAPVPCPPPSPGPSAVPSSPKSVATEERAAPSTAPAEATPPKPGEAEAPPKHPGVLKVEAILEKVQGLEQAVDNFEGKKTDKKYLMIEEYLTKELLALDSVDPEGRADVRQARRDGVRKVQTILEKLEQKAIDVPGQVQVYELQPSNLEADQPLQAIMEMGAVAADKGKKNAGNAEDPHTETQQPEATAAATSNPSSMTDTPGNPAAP
Procedure: as §1
Recombinant human BAG3 protein (Bcl2-associated athanogene 3) was sourced from Novus Biologicals (Littleton, CO, USA), while the BAG3 domain (BAG3-BD) was procured from ARETA International S.r.l. (Gerenzano, Italy). We utilized (Z)-ethyl 2-(5-(3,4-dihydroxybenzylidene)-2,4-dioxothiazolidin-3-yl)acetate (LK4), a known BAG3 inhibitor previously identified by our group. Surface Plasmon Resonance (SPR) spectroscopy was employed to assess the affinity of synthesized molecules for BAG3 and BAG-BD using a Biacore T200 optical biosensor equipped with CM5 sensor chips (Cytiva, Marlborough, MA, USA). BAG3 and BAG-BD were immobilized on the CM5 sensor chip using standard amine-coupling protocols. BAG3 protein (0.067 μg/μL in 10 mM CH3COONa, pH 4.5) was immobilized at a flow rate of 10 μL/min, resulting in a density of 14 kRU. The BAG3 domain (0.38 μg/μL in 10 mM CH3COONa, pH 4.5) was immobilized under similar conditions, achieving a density of 4 kRU. For the experiments, BAG3 and BAG-BD surfaces, along with an unmodified reference surface, were prepared for simultaneous analyses.
Compounds 1–14 and LK4 were dissolved to 10 mM in 100% DMSO and then diluted 1:20 (v/v) in PBS-P buffer (0.2 M phosphate buffer, 27 mM KCl, 1.37 M NaCl, 0.5% surfactant P20) to achieve a final DMSO concentration of 5.0%. These compounds were injected in a concentration series (1:2 dilution, 10 different concentrations) ranging from 0 to 100 μM, prepared in 96-well plates. SPR experiments were conducted at 25 °C with a flow rate of 20 μL/min, featuring 90 s of association and 400 s of dissociation monitoring. Changes in mass, reflected as resonance units (RU), were recorded to determine binding responses. KD values were calculated using Biaevaluation software 3.2 by globally fitting the double-referenced association and dissociation data to a 1:1 interaction model. See Supplementary Materials for all the sensorgrams (Figures S43–S50).

For `CC(C)Nc1c(-c2ccccc2Br)nc2ccc(Cl)cn12` [Compound 10, 2-(2-bromophenyl)-6-chloro-N-isopropylimidazo[1,2-a]pyridin-3-amine], the Kd (BAG3-BD) was 15.7 ± 1.44 µM, the IC50 (HaCat cells) was 81.3 ± 4.83 µM and the Kd (BAG3 full-length) was 33.5 ± 0.21 µM.
